Measurements reported in ChEMBL document CHEMBL1201862, “PubChem BioAssay data set” (2004).
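Following 48 hours of exposure in 96-well plates, responses at five concentrations were used to interpolate endpoints linearly. The concentration for 50% growth inhibition is given as GI50.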 The source made the active and inactive calls. Rule as the data show it: active = GI50 up to about 1.1 µM and inactive = higher.

What was measured:
Assay in all cases: inhibition of tumour cell growth, NCI panel, 48 h
[1] = test system: UO-31
[2] = test system: SN12C
[3] = test system: A549
[4] = test system: HCC 2998
[5] = test system: HCT-116
[6] = test system: K562
[7] = test system: NCI-H226
[8] = test system: HCT-15
[9] = test system: SNB-19
[10] = test system: SR
[11] = test system: DLD-1
[12] = test system: IGROV-1
[13] = test system: NCI-H23
[14] = test system: HT-29
[15] = test system: SF-539
[16] = test system: RXF 393
[17] = test system: SK-MEL-5
[18] = test system: A498
[19] = test system: SF-295
[20] = test system: HL-60

Row | Structure (SMILES) | GI50 [1] | GI50 [2] | GI50 [3] | GI50 [4] | GI50 [5] | GI50 [6] | GI50 [7] | GI50 [8] [µM] | GI50 [9] | GI50 [10] | GI50 [11] | GI50 [12] | GI50 [13] | GI50 [14] | GI50 [15] | GI50 [16] | GI50 [17] | GI50 [18] | GI50 [19] | GI50 [20]
1 | COc1cccc(/C=C\c2cc(OC)c(OC)c(OC)c2)c1 | 4.48 µM (inactive) | 4.08 µM (inactive) | 0.668 µM (active) | 3.94 µM (inactive) | 0.548 µM (active) | 0.373 µM (active) | 0.745 µM (active) | 0.693 | 2.18 µM (inactive) | 0.498 µM (active) | 0.49 µM (active) | 3.15 µM (inactive) | 1.32 µM (inactive) | 0.423 µM (active) | 0.753 µM (active) |  |  |  |  | 
2 | COc1ccc2nc3cccc(C(=O)NCCN(C)C)c3nc2c1 | 2.45 µM (inactive) | 1.39 µM (inactive) | 1.8 µM (inactive) | 1.85 µM (inactive) | 0.512 µM (active) | 0.794 µM (active) | 1.32 µM (inactive) | 1.43 | 2.84 µM (inactive) | 0.264 µM (active) | 1.37 µM (inactive) | 2.67 µM (inactive) | 1.41 µM (inactive) | 0.632 µM (active) | 2.1 µM (inactive) | 1.55 µM (inactive) | 2.04 µM (inactive) | 1.55 µM (inactive) | 2.08 µM (inactive) | 1.08 µM (active)
3 | O=C1C(=O)N(c2ccc(Cl)cc2Cl)C(=O)C(=O)C1c1nc2ccccc2s1 | > 77.4 µM (inactive) | > 100 µM (inactive) | > 100 µM (inactive) | > 100 µM (inactive) | > 71.6 µM (inactive) | 31 µM (inactive) | > 74.8 µM (inactive) | > 89.1 | > 100 µM (inactive) | 28.2 µM (inactive) | > 51.8 µM (inactive) | > 100 µM (inactive) | > 64 µM (inactive) | > 82.2 µM (inactive) | > 100 µM (inactive) | > 100 µM (inactive) | 65.2 µM (inactive) | > 100 µM (inactive) | > 100 µM (inactive) | 23.7 µM (inactive)
4 | N#Cc1nn(-c2ccc(Cl)cc2)c(=N)c2c(N)n3nc(-c4ccccc4)cc3nc12 |  | 1 µM (active) | 1 µM (active) | < 0.01 µM (active) | 1 µM (active) | 1 µM (active) | 39.7 µM (inactive) | 1 | 1 µM (active) | < 0.01 µM (active) | 1 µM (active) | 0.546 µM (active) | 0.83 µM (active) | 1 µM (active) | 0.497 µM (active) | 28.2 µM (inactive) | 0.809 µM (active) | 1 µM (active) | 0.681 µM (active) | > 100 µM (inactive)
5 | Cc1cc(C)c(C(=O)/C=C/c2ccccc2)c(C)c1 | 52.4 µM (inactive) | 14.4 µM (inactive) | 30.2 µM (inactive) |  | 24.8 µM (inactive) | 26.5 µM (inactive) | 22.8 µM (inactive) | 16.5 | 28.5 µM (inactive) | 30.5 µM (inactive) | 22.6 µM (inactive) | 77.4 µM (inactive) | 26.4 µM (inactive) | 30.3 µM (inactive) | > 10 µM (inactive) | 15.8 µM (inactive) | > 100 µM (inactive) |  | 21.8 µM (inactive) | 25.9 µM (inactive)
6 | CC(=O)Nc1ccc(-c2nnc(SCC(=O)Nc3cccc(C)c3)o2)cc1 | 13.2 µM (inactive) | 15.2 µM (inactive) | 21.3 µM (inactive) |  | 11.8 µM (inactive) | 10.8 µM (inactive) | 14.4 µM (inactive) | 8.97 |  | 4.93 µM (inactive) | 10.5 µM (inactive) | 11.7 µM (inactive) | 7.55 µM (inactive) | 12.2 µM (inactive) | 14.5 µM (inactive) | 12.8 µM (inactive) | 11.1 µM (inactive) |  | 10.8 µM (inactive) | 19.5 µM (inactive)
7 | CN(C)C(=O)/N=c1\ss/c(=N\C(=S)N(C)C)n1-c1ccccc1 | 33 µM (inactive) | 45.8 µM (inactive) | 35.5 µM (inactive) | > 100 µM (inactive) | 13.5 µM (inactive) | 0.294 µM (active) | 27.2 µM (inactive) | 15 | 35.6 µM (inactive) | 10 µM (inactive) | 26.6 µM (inactive) | 29.4 µM (inactive) | 18.7 µM (inactive) |  | 35.4 µM (inactive) | 38.4 µM (inactive) | 29.6 µM (inactive) | 56.8 µM (inactive) | 40.2 µM (inactive) | 8.34 µM (inactive)
8 | COc1cc(/C=C2/C(=O)N(C(=O)OC(C)C)C(Cc3cc(OC)c(OC)c(C)c3OC)C(=O)N2Cc2ccccc2)c(OC)c(C)c1OC (stereo not given) | 9.06 µM (inactive) | 54.8 µM (inactive) | 56.9 µM (inactive) | 38.4 µM (inactive) | 27.5 µM (inactive) | 6.79 µM (inactive) | 3.35 µM (inactive) |  |  | 7.24 µM (inactive) | > 100 µM (inactive) | > 100 µM (inactive) | 13.2 µM (inactive) | 27.9 µM (inactive) | > 100 µM (inactive) | 20.4 µM (inactive) | 14.4 µM (inactive) | 73.1 µM (inactive) | 68.7 µM (inactive) | 3.52 µM (inactive)
9 | COc1ccc2cc3c4cc(OC)c(OC)cc4ccn3c2c1 | > 100 µM (inactive) | > 100 µM (inactive) | > 100 µM (inactive) | > 100 µM (inactive) |  | > 100 µM (inactive) | > 100 µM (inactive) |  | > 100 µM (inactive) | > 100 µM (inactive) | > 100 µM (inactive) | > 100 µM (inactive) | > 100 µM (inactive) | > 100 µM (inactive) | > 100 µM (inactive) | > 100 µM (inactive) | > 100 µM (inactive) | > 100 µM (inactive) | > 100 µM (inactive) | > 100 µM (inactive)
10 | Cc1ccc(NC(=O)c2cc3cc(/N=N/c4ccc(Br)cc4)ccc3oc2=O)cc1 |  | > 100 µM (inactive) | > 100 µM (inactive) | > 100 µM (inactive) | 46.9 µM (inactive) |  | > 100 µM (inactive) | 46 | 25.9 µM (inactive) | 61 µM (inactive) | 46.5 µM (inactive) |  | > 100 µM (inactive) | > 100 µM (inactive) |  | > 100 µM (inactive) | > 100 µM (inactive) | 46.3 µM (inactive) | > 100 µM (inactive) | 23.4 µM (inactive)
11 | CCC(=O)OC1CCn2c1nc1c2C(=O)C(C)=C(NC(C)=O)C1=O (stereo not given) | 2.22 µM (inactive) | 1.79 µM (inactive) | 2.05 µM (inactive) | 2.31 µM (inactive) | 1.67 µM (inactive) | 1.87 µM (inactive) | 1.69 µM (inactive) |  | 2.9 µM (inactive) | 1.91 µM (inactive) | 1.84 µM (inactive) | 2.19 µM (inactive) | 1.76 µM (inactive) | 1.69 µM (inactive) | 1.75 µM (inactive) | 1.73 µM (inactive) | 1.83 µM (inactive) | 18.4 µM (inactive) | 2.23 µM (inactive) | 0.796 µM (active)
12 | CC(C)N(C(=O)C12C3C4C5C3C1(C#N)C5C42)C(C)C (stereo not given) | > 100 µM (inactive) | > 100 µM (inactive) | > 100 µM (inactive) | > 100 µM (inactive) | > 100 µM (inactive) | > 100 µM (inactive) | > 100 µM (inactive) | > 100 | > 100 µM (inactive) | > 100 µM (inactive) | > 100 µM (inactive) | > 100 µM (inactive) | > 100 µM (inactive) | > 100 µM (inactive) | > 100 µM (inactive) |  | > 100 µM (inactive) | > 100 µM (inactive) | > 100 µM (inactive) | > 100 µM (inactive)
13 | CC1(C)OC(=O)[C@@](C)([C@H](O)c2ccccc2)O1 | > 100 µM (inactive) | > 100 µM (inactive) | 83.2 µM (inactive) | 71 µM (inactive) | 93.8 µM (inactive) | 67.9 µM (inactive) | 27.6 µM (inactive) |  | > 100 µM (inactive) | 50.6 µM (inactive) | > 100 µM (inactive) | 94.6 µM (inactive) | > 100 µM (inactive) | > 100 µM (inactive) | > 100 µM (inactive) | > 100 µM (inactive) | 40.1 µM (inactive) | > 100 µM (inactive) | > 100 µM (inactive) | 32.6 µM (inactive)
14 | Cc1ccc(OCC(=O)N2N=C(c3ccccc3)CC2(O)c2ccccc2)cc1 (stereo not given) | > 100 µM (inactive) | 17.3 µM (inactive) | 20.5 µM (inactive) | > 100 µM (inactive) | > 100 µM (inactive) | 20.2 µM (inactive) | 25.9 µM (inactive) | > 100 | > 100 µM (inactive) | 9.44 µM (inactive) | 27.9 µM (inactive) | 39.4 µM (inactive) | 22.6 µM (inactive) | > 10 µM (inactive) | 43 µM (inactive) |  |  |  | 76 µM (inactive) | 27.8 µM (inactive)
15 | CCOC(=O)C1S(=O)(=O)OCCOS1(=O)=O | > 100 µM (inactive) | > 100 µM (inactive) | > 100 µM (inactive) | > 100 µM (inactive) | > 100 µM (inactive) | > 100 µM (inactive) |  |  | > 100 µM (inactive) | > 100 µM (inactive) | > 100 µM (inactive) | > 100 µM (inactive) | > 100 µM (inactive) | > 100 µM (inactive) | > 100 µM (inactive) |  | > 100 µM (inactive) |  | > 100 µM (inactive) | > 100 µM (inactive)
